Test results published in patent US9155309B2, “Virus inactivating sheet” (priority 2009, dated 2015).
Where two headings read alike, the source gives them in different places.

System: influenza virus (influenza A/Kitakyusyu/159/93(H3N2))
Type: cell-based
Conditions: 10 minutes at room temperature, PBS control 128

With [Cu+].[Cu+].[S-2] [compound 26, COPPER(I) SULFIDE] the “HA TITER” value (material concentration 0.5 percent by mass in PBS) was 64 and the “HA TITER” value (material concentration 5 percent by mass in PBS) was 16.
